# Source: paper PMC12391994, “Synthesis of a fac-Tricarbonylrhenium(I) Complex with Pyrithione, Its Physicochemical Characterization, and Assessment of Biological Effects” (ACS Omega, 2025)
# Read-outs that look alike come from different tables or passages of the source.
# Key:
# [1] = molecular target: T1, cathepsin B (endopeptidase activity) (Homo sapiens, UniProt P07858); assay: Relative inhibition of cathepsin B endopeptidase activity; format: biochemical; conditions: for relative inhibition cathepsin B endopeptidase: 50 μM, substrate Z-Arg-Arg-AMC, pH 6.0
# T1 construct: made in house; host or cells: E. coli
# Excerpt: (§1) Relative inhibition is expressed as a percentage of the decrease in reaction velocity in the presence of an inhibitor, in comparison to the reaction velocity in the absence of an inhibitor. For that purpose, the specific fluorogenic substrates Z-Arg-Arg-7-amido-4-methylcoumarin (Z-Arg-Arg-AMC) and 2-aminobenzoyl (Abz)-Gly-Ile-Val-Arg-Ala-Lys-(Dnp)-OH were used for cathepsin B endopeptidase and exopeptidase activities, respectively, and Z-Phe-Arg-AMC was used for cathepsin L and V activities.
# (§2) Human recombinant cathepsin B was expressed in E. coli, recombinant cathepsin V was expressed in Pichia pastoris, and human recombinant cathepsin L was expressed in E. coli, as reported. − For the determination of cathepsin B endopeptidase and exopeptidase activities, 100 mM phosphate buffer (pH 6.0) and 60 mM acetate buffer (pH 5.0) were used, respectively, and for the determination of cathepsin V and L activities, 100 mM acetate buffer (pH 5.5) was used. All buffers contained 0.1% PEG 8000 (Sigma-Aldrich, St. Louis, MO), 5 mM cysteine, and 1.5 mM EDTA. Prior to the assay, the enzymes were activated in the assay buffer for 5 min at 37 °C.
# (§3) To determine the effect of inhibitors on enzyme activity, the following substrates were used: Z-Arg-Arg-AMC (final concentration 5 μM, Z-RR-AMC; Bachem, Bubendorf, Switzerland) for cathepsin B endopeptidase activity, Abz-Gly-Ile-Val-Arg-Ala-Lys-(Dnp)-OH (final concentration 1 μM, Abz-GIVRAK-(Dnp)-OH; Bachem) for cathepsin B exopeptidase activity, and Z-Phe-Arg-AMC (final concentration 2 μM, Z-FR-AMC; Bachem) for cathepsin V and L activity. The substrate ([…]) at a final concentration and inhibitor ([…]) at a concentration of 50 μM were added to the wells of a black microplate. The reaction was then initiated by adding 90 μL of activated enzyme (final concentrations: 5 nM cathepsin B for its endopeptidase activity, 0.5 nM cathepsin B for its exopeptidase activity, 2.5 ng/mL for cathepsin V, and 0.02 nM for cathepsin L) in the assay buffer. The formation of fluorescent degradation products during the reaction was continuously monitored at 460 ± 10 nm with excitation at 380 ± 20 nm for Z-Arg-Arg-AMC and Z-Phe-Arg-AMC and at 420 ± 10 nm with excitation at 320 ± 20 nm for Abz-Gly-Ile-Val-Arg-Ala-Lys(Dnp)-OH at 37 °C on a Tecan Infinite M1000 (Mannedorf, Switzerland) spectrofluorometer. All assay mixtures contained 5% (v/v) DMSO. To prevent false-positive inhibition due to the formation of compound aggregates, 0.01% Triton X-100 was used. All measurements were performed in triplicate and repeated twice. The relative inhibition was calculated using the following equation: relative inhibition (%) = 100(1 – v i/v o), where v i and v o designate the reaction velocities in the presence and absence of inhibitor, respectively.
# [2] = molecular target: T2, cathepsin B (exopeptidase activity) (Homo sapiens, UniProt P07858); assay: Relative inhibition of cathepsin B exopeptidase activity; format: biochemical; conditions: 50 μM; substrate Abz-Gly-Ile-Val-Arg-Ala-Lys-(Dnp)-OH; pH 5.0
# T2 construct: made in house; host or cells: E. coli
# Excerpt: as §1, §2, §3
# cathepsin L = molecular target: T3, cathepsin L (Homo sapiens, UniProt P07711); assay: Relative inhibition of cathepsin L; format: biochemical; conditions: for relative inhibition cathepsin L: 50 μM, substrate Z-Phe-Arg-AMC, pH 5.5
# T3 construct: made in house; host or cells: E. coli
# T3 sequence (P07711 114-333): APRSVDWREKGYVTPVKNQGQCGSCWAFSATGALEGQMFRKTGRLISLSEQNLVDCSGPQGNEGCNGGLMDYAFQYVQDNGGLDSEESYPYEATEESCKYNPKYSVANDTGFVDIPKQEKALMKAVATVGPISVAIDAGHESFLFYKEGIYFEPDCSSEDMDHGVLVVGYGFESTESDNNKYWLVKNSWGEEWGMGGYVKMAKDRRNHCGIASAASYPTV
# Excerpt: as §1, §2, §3
# cathepsin V = molecular target: T4, cathepsin V (Homo sapiens, UniProt O60911); assay: Relative inhibition of cathepsin V; format: biochemical; conditions: for relative inhibition cathepsin V: 50 μM, substrate Z-Phe-Arg-AMC, pH 5.5
# T4 construct: made in house; host or cells: Pichia pastoris
# T4 sequence (O60911 114-334): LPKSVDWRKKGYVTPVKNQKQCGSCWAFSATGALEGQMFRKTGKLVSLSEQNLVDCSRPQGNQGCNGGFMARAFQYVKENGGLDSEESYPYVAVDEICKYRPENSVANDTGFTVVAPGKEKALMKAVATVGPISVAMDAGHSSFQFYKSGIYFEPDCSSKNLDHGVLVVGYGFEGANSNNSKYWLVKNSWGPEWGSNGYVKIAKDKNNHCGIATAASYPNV
# Excerpt: as §1, §2, §3
# [3] = molecular target: T5, human serum albumin (HSA) (Homo sapiens, UniProt P02768); conditions: reported value for similar complex; cited from earlier work
# T5 construct: purchased Sigma-Aldrich/Merck A8763
# T5 sequence (P02768 25-609): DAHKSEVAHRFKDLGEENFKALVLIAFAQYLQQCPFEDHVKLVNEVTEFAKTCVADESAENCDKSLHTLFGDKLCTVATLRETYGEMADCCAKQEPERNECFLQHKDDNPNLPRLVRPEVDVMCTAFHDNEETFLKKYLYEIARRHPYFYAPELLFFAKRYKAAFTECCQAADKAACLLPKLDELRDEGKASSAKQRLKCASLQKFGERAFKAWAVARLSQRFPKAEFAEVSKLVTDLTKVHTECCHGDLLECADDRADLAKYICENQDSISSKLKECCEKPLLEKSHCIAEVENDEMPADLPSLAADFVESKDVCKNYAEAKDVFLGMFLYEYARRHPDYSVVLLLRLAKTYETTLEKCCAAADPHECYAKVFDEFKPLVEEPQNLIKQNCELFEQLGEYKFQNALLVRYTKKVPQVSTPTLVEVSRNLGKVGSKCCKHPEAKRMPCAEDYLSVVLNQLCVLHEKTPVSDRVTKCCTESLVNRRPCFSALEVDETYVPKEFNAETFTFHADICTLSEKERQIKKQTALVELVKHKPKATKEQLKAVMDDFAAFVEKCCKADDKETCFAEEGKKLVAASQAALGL
# S. aureus ATCC 25923 [4] = system: S. aureus ATCC 25923; set-up: method as in our previous work; conditions: only on S. aureus strain; ref our previous work; cited from earlier work
# HSV-2 = system: HSV-2; set-up: method as in our previous work; conditions: ref our previous work; cited from earlier work
# Colo205 cells = assay: MTT cytotoxicity assay, Colo205; format: cell-based, human; conditions: Homo sapiens, read-out: IC50 Colo205
# Protocol: (§4) Its cytotoxicity was determined in the human HeLa cervical cancer cell line, the drug-sensitive Colo205 and its resistant counterpart, the ABCB1 expressing Colo320 colon adenocarcinoma cancer cell lines, using the colorimetric 3-(4,5-dimethylthiazol-2-yl)-2,5-diphenyltetrazolium bromide (MTT) test. To investigate the selectivity toward cancer cells, the noncancerous fibroblast CCD-19Lu cell line was included.
# Drug-sensitive Colo205 (ATCC-CCL-222) and ABCB1 (MDR1)-LRP expressing and doxorubicin-resistant Colo320/MDR-LRP (ATCC-CCL-220.1) human colonic adenocarcinoma cell lines were purchased from LGC Promochem (Teddington, U.K.). The cells were cultured in RPMI 1640 medium supplemented with 10% heat-inactivated fetal bovine serum, 2 mM L-glutamine, 1 mM Na-pyruvate, and 10 mM HEPES.
# (§5) The tested compound was dissolved in DMSO to prepare a 5 mM stock solution, which was diluted in complete culture medium, to study the effect of compounds on cell growth of human colonic adenocarcinoma cell lines. Doxorubicin was used as the positive control. The cells were treated with a trypsin-versene (EDTA) solution. Cells were adjusted to a density of 1 × 10^4 cells in 100 μL of the appropriate culture medium and were added to each well, with the exception of the medium control wells. Except for the semiadherent Colo205 and Colo320 cell lines, the other adherent cell lines were seeded 24 h prior to the assay. Then, stock solutions were diluted in the appropriate culture medium, and 2-fold serial dilutions of compounds were prepared in 100 μL of the medium, horizontally. The final volume of the wells containing compounds and cells was 200 μL. The plates were incubated at 37 °C for 72 h; at the end of the incubation period, 20 μL of MTT solution (from a stock solution of 5 mg/mL) was added to each well. […] Cell growth was determined by measuring the optical density (OD) at 540/630 nm with a Multiscan EX ELISA reader (Thermo Labsystems, Cheshire, WA). […]
# S. aureus ATCC 25923 [5] = assay: Antibacterial MIC assay, S. aureus ATCC 25923; format: cell-based, Staphylococcus aureus; conditions: Staphylococcus aureus, ATCC25923; 18 h, visual inspection
# Protocol: (§6) The antibacterial effect of the complex was tested against the Gram-negative strain Escherichia coli (E. coli) ATCC 25922, the Gram-positive reference strain Staphylococcus aureus (S. aureus) ATCC 25923, and the methicillin-resistant S. aureus MRSA ATCC 43300 strain. MRSA strains are responsible for several difficult-to-treat hospital-acquired infections.
# (§7) The following bacterial strains were used in our experiments: Gram-positive S. aureus American Type Culture Collection (ATCC) 25923 as the methicillin-susceptible reference bacterial strain; methicillin-resistant S. aureus ATCC 43300 (MRSA) strain; E. coli ATCC 25922 as a Gram-negative bacterial strain.
# (§8) MIC values of the complexes were determined in 96-well plates based on the Clinical and Laboratory Standard Institute guidelines (CLSI guidelines). The stock solutions of the compound (dissolved in DMSO at 5 mM concentration) were diluted in 100 μL of Mueller Hinton Broth. Then, 10^–4 dilution of an overnight bacterial culture in 100 μL of medium was added to each well, with the exception of the medium control wells.
# [6] = system: S. aureus MRSA ATCC 43300; assay: Antibacterial MIC assay, S. aureus MRSA ATCC 43300; format: cell-based, Staphylococcus aureus; conditions: Staphylococcus aureus, 18 h, read-out: MIC S. aureus MRSA ATCC 43300
# Protocol: as §6, §7, §8
# E. coli ATCC 25922 = assay: Antibacterial MIC assay, E. coli ATCC 25922; format: cell-based, Escherichia coli; conditions: Escherichia coli, ATCC25922, 18 h, read-out: MIC E. coli ATCC 25922
# Protocol: as §6, §7, §8
# CCD-19Lu cells = assay: MTT cytotoxicity assay, CCD-19Lu; format: cell-based, human; conditions: Homo sapiens, CCD 19Lu, 72 h incubation, noncancerous fibroblast
# Protocol: as §4
# as §5, with “horizontally.” for “horizontally. The final volume of the wells containing compounds and cells was 200 μL. The plates were incubated at 37 °C for 72 h; at the end of the incubation period, 20 μL of MTT solution (from a stock solution of 5 mg/mL) was added to each well.”
# [7] = pH-dependent UV-vis spectrophotometry (solution speciation, pKa of aqua ligand); format: physicochemical
# Excerpt: However, at pH > ∼8, the spectrum changes considerably (Figure ).
# The isosbestic point indicates a single equilibrium process, which is most likely deprotonation of the coordinated aqua ligand in complex 4a. This process was studied in our previous work for similar fac-[Re(CO)3] complexes formed with (N,N)-bearing ligands, and the calculated pK a (H2O) is around 8. […] Similar pK a values in the presence and absence of the chloride ions indicate a low chloride affinity of the aqua complex. Based on these values, the fraction of [Re(CO)3(pth)(H2O)] is 100% at pH = 7.4. The analogous half-sandwich complex [Ru(cym)(pth)(H2O)]^+ was also characterized by high solution stability, and a similarly high pK a value (10.34 (0.2 M KCl)).
# For the solution studies, an Agilent Cary 3500 spectrophotometer was utilized to obtain UV–vis spectra in the wavelength range of 200–1100 nm. The path length ( l ) was 1 cm in all cases. The concentrations of the complex were between 10 and 60 μM. For investigation of the effect of chloride ions, the samples contained 60 μM complex and 0–7300 equiv of Cl^–. For HSA-containing samples, complex concentrations were 60 μM, and 0.5 equiv of biomolecule (or 6 equiv of MIM) was added for kinetic studies, respectively. Individual samples contained 0–34 μM HSA. The computer program HypSpec was used to obtain equilibrium constants.
compound,measurement,setting,value
"[C-]#[O+].[C-]#[O+].[C-]#[O+].[C-]#[O+].[C-]#[O+].[Cl][Re] [[Re(CO)5Cl], rhenium(I) pentacarbonyl chloride]",relative inhibition cathepsin B endopeptidase,[1],6.7 ± 0.7%
same,relative inhibition cathepsin B exopeptidase,[2],12.2 ± 3.0%
same,relative inhibition cathepsin L,cathepsin L,1.6 ± 6.5%
same,relative inhibition cathepsin V,cathepsin V,4.6 ± 0.3%
"Cc1ccc(C(C)C)cc1.[Cl-].[O-][n+]1ccccc1[S-].[Ru+2] [[Ru(cym)(pth)Cl], [ruthenium(η^6-p-cymene)(pyrithionato)(chlorido)]]",relative inhibition cathepsin B endopeptidase,[1],9.4 ± 1.8%
same,relative inhibition cathepsin B exopeptidase,[2],5.4 ± 7.2%
same,relative inhibition cathepsin L,cathepsin L,1.5 ± 1.5%
same,relative inhibition cathepsin V,cathepsin V,1.7 ± 5.7%
same,log KQ quenching constant,[3],5.81
same,MIC S. aureus strain,S. aureus ATCC 25923 [4],50 µM
same,inhibition of growth of the HSV-2 virus,HSV-2,did not inhibit the growth of the HSV-2 virus
"N#Cc1ccccc1 [benzonitrile, reference compound]",IC50,"Colo205 cells; COLO 205, 72 h",> 100000 nM
same,MIC,S. aureus ATCC 25923 [5],> 100 µM
same,MIC,[6],> 100 µM
same,MIC,E. coli ATCC 25922,> 100 µM
"COc1cccc2c1C(=O)c1c(O)c3c(c(O)c1C2=O)C[C@@](O)(C(=O)CO)C[C@@H]3O[C@H]1C[C@H](N)[C@H](O)[C@H](C)O1 [doxorubicin, reference compound]",IC50,"Colo205 cells; COLO 205, 72 h incubation, MTT",584 ± 55 nM
same,IC50,CCD-19Lu cells,244 ± 26 nM
"[O-][n+]1ccccc1S [pthH, Pyrithione]",inhibition at 50 µM,"[1]; pH 6, read-out: relative inhibition cathepsin B endopeptidase",4.3 ± 2.3%
same,relative inhibition cathepsin B exopeptidase,[2],n.i. ^a
same,inhibition at 50 µM,"cathepsin L; pH 5.5, read-out: relative inhibition cathepsin L",0.5 ± 1.9%
same,inhibition at 50 µM,"cathepsin V; pH 5.5, read-out: relative inhibition cathepsin V",2.3 ± 3.2%
[Re(CO)3(pth)(H2O)] [complex 4a],pKa (deprotonation of coordinated aqua ligand),"[7]; 0.1 M KCl, 25.0 °C",10.27 ± 0.01
same,pKa (deprotonation of coordinated aqua ligand),[7]; 0.1 M KNO3,10.15 ± 0.01
same,fraction of aqua complex,"[7]; pH = 7.4, based on the pKa values",100%
zinc pyrithione,relative inhibition cathepsin B endopeptidase,[1],8.7 ± 2.2%
same,relative inhibition cathepsin B exopeptidase,[2],11.1 ± 2.2%
same,relative inhibition cathepsin L,cathepsin L,1.3 ± 2.4%
same,relative inhibition cathepsin V,cathepsin V,1.9 ± 3.0%
